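Dose response: 5 concentrations. Exposure: 48 h. Format: 96-well plates. Endpoint: linear interpolation; highest concentration if not reached. The concentration for full growth arrest is given as TGI.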
Columns and labels:
Test in all cases: NCI-60 cell line screen, 48 h
[1] = tested on: 786-0 renal
[2] = tested on: U251 CNS
[3] = tested on: SK-MEL-2 melanoma
[4] = tested on: SF-295 CNS
[5] = tested on: NCI-H522 lung
[6] = tested on: HCC-2998 colon
[7] = tested on: EKVX NSCLC
[8] = tested on: K-562 leukemia
[9] = tested on: HL-60(TB) leukemia
[10] = tested on: MDA-N
[11] = tested on: BT-549 breast
[12] = tested on: SR leukemia
[13] = tested on: UACC-62 melanoma
[14] = tested on: NCI-H460 lung
[15] = tested on: SK-MEL-28 melanoma
[16] = tested on: RPMI-8226 leukemia
[17] = tested on: A498 renal
[18] = tested on: ACHN renal
[19] = tested on: MCF7 breast
[20] = tested on: CAKI-1 renal
[21] = tested on: RXF 393 renal
[22] = tested on: SW-620 colon
[23] = tested on: T-47D breast
[24] = tested on: NCI-H226 lung
[25] = tested on: SNB-19 CNS
[26] = tested on: NCI/ADR-RES ovarian
[27] = tested on: CCRF-CEM leukemia
[28] = tested on: UACC-257 melanoma
[29] = tested on: OVCAR-8 ovarian
[30] = tested on: M14 melanoma
[31] = tested on: HCT-15 colon
[32] = tested on: HT29 colon
[33] = tested on: A549 NSCLC
[34] = tested on: SN12C renal
[35] = tested on: IGROV1 ovarian
[36] = tested on: SNB-75 CNS
[37] = tested on: MDA-MB-435
[38] = tested on: COLO 205 colon
[39] = tested on: SK-MEL-5 melanoma
[40] = tested on: SF-268 CNS
[41] = tested on: LOX IMVI melanoma
[42] = tested on: MDA-MB-231 breast
[43] = tested on: OVCAR-5 ovarian
[44] = tested on: MOLT-4 leukemia
[45] = tested on: OVCAR-3 ovarian
[46] = tested on: HOP-62 NSCLC
[47] = tested on: KM12 colon
[48] = tested on: HCT-116 colon
[49] = tested on: HS 578T breast
[50] = tested on: PC-3 prostate
[51] = tested on: TK-10 renal
[52] = tested on: DU-145 prostate
[53] = tested on: NCI-H23 lung
[54] = tested on: OVCAR-4 ovarian
[55] = tested on: SK-OV-3 ovarian
[56] = tested on: UO-31 renal
[57] = tested on: SF-539 CNS
[58] = tested on: HOP-92 NSCLC
[59] = tested on: MALME-3M melanoma

Measured: TGI

O=C1N=C(c2ccccc2)OC1C(=O)c1ccccc1 (configuration not stated)
not listed: [57] | [58] | [59]
> 100 µM: all other assays above

Cn1c(=O)[nH]c2[nH]c3ccccc3c2c1=O
not listed: [14] | [50] | [54]
> 100 µM: all other assays above

Reference: PubChem BioAssay (NCI)
